Where two headings read alike, the source gives them in different places.

Data set [1] deals with rats and mice. As to conditions: cited from earlier work; for Carcinogenicity: rodent studies, topical for sodium xylene sulfonate, ref [65], [72], [82], [85].
Data set [2] relates to Phenion®FT Skin Models.
Data set [3] concerns Phenion®FT Skin Models (keratinocytes and fibroblasts).
For data set [4] the following is noted: over 24 h; ref [58]; cited from earlier work.
The conditions of data set [5]: EpiSkin S9 over 4 h for IQ; ref [58]; cited from earlier work.
The test system of data set [6] is bacterial reverse mutation test (Ames test) strains. As to conditions: cited from earlier work.
For data set [7], the system named is Phenion®FT Skin Models (keratinocytes and fibroblasts). The following applies: application of the dye to the skin; ref [95]; cited from earlier work.
Data set [8] deals with mammalian cells (V79, CHO, CHL, HuLy, TK6, HepG2). As to conditions: cited from earlier work.
Data set [9] has as its system PRH, HepG2, CHO, TK6, CHL, MA-10 cells. The following applies: TK6 cell line; ref [73]; cited from earlier work.
Data set [10] concerns bone marrow, blood, liver, skin. As to conditions: cited from earlier work.
Data set [11] concerns mammalian cells (CHL, V79, CHO, HuLy). As to conditions: cited from earlier work.

In the case of `Nc1ccc(Cl)cc1` [4-Chloroaniline, 4-chloroaniline], the Carcinogenicity entry in [1] is given as “carcinogenic”. In addition, in data set [2] (human), the “Dose producing signs of strong cytotoxicity that limited the top dose” value turned out to be 5 µg/cm^2 and the “Dose(s) exceeding the cytotoxicity limit in main or APC experiments” value was at least 10 µg/cm^2. In addition, in data set [3], the “Effect on % tail DNA / DNA migration in APC experiment” value is recorded as “did not induce an increase in DNA migration”, the “Effect on % tail DNA / DNA migration in standard experiment” value is “did not increase % tail DNA in either cell type” and the “RS Comet assay overall classification” value is “negative”. The “Metabolism in ex vivo skin” value in data set [4] is listed as “not metabolised”. In data set [5], the “Metabolism by skin S9” value is “N-acetylated to N-acetyl-4-chloroaniline”.

In the case of `C[N+](C)(C)c1ccc2ccc(O)c(N=Nc3ccc(N)c([N+](=O)[O-])c3)c2c1.[Cl-]` [Basic Brown 17], the “Ames test” value in data set [6] is given as “positive findings”. In addition, the “RS Comet assay outcome in SCCS opinion” value in [7] is “lack of DNA damaging properties”. Moreover, the “Standard in vitro micronucleus test” value in [8] is “negative findings”.

For “2-Amino-3-methylimidazo[4,5-f]quinolone [IQ]”, in [1] (ref IARC), the IARC class is given as 2A. Moreover, in data set [2], the “Dose(s) exceeding the cytotoxicity limit in main or APC experiments” value is recorded as 33.3–300 µg/cm^2. For the same compound, in data set [3], the “Effect on % tail DNA / DNA migration in APC experiment” value is reported as “did not show a statistically significant increase in DNA damage at any dose”, the “Effect on % tail DNA / DNA migration in standard experiment” value is “moderate increase in % tail DNA was detected in one mid-dose group that was slightly outside the cytotoxicity limits” and the “RS Comet assay overall classification” value is recorded as “negative”. Moreover, in [4], the “Metabolism in ex vivo skin” value is reported as “not metabolised”. In [5], the “Metabolism by skin S9” value is recorded as “not metabolised”.

Regarding `O=CC=O` [Glyoxal], the Carcinogenicity result in [1] is listed as “non-carcinogenic”. Besides, the “Dose producing signs of strong cytotoxicity that limited the top dose” value in [2] turned out to be 25 µg/cm^2. Further, the “In vitro comet assay” value in data set [9] was “positive response”. Moreover, in [3], the “Call of statistical prediction models 1 and 2” value is given as “positive”; the “Effect on % tail DNA / DNA migration in APC experiment” value is on record as “statistically significant increase in DNA migration was observed in keratinocytes at the highest dose tested”; the “Effect on % tail DNA / DNA migration in standard experiment” value is reported as “DNA migration was not increased in either cell type”; the “Expert call of the performing laboratory in the coded phase” value is “negative”. The “RS Comet assay overall classification” value in [3] was “negative”. Also, in data set [10], the “In vivo micronucleus test in mice” value is reported as “negative results”. The “In vitro chromosomal aberration studies” value in [11] is recorded as “clear positive results”.

Source of the values: publication PMC8081376 (Mutagenesis, 2020).
